According to US11230544B1, “Substituted 1,3,4-thiadiazoles as GLS1 inhibitors” (MEDSHINE DISCOVERY INC., priority 2018, dated 2022):
Structures can show the parent of a compound that is named as a salt.

Legend:
[1] = target: T1, GLS1 (Homo sapiens, UniProt O94925); assay: Activity test of compounds in a GLS1 coupling reaction system; type: biochemical; conditions: enzyme GLS1 2 nM, 4.5 mM L-glutamine, 1 hour preincubation at 23° C.
T1 sequence (O94925 73-669 limits assumed): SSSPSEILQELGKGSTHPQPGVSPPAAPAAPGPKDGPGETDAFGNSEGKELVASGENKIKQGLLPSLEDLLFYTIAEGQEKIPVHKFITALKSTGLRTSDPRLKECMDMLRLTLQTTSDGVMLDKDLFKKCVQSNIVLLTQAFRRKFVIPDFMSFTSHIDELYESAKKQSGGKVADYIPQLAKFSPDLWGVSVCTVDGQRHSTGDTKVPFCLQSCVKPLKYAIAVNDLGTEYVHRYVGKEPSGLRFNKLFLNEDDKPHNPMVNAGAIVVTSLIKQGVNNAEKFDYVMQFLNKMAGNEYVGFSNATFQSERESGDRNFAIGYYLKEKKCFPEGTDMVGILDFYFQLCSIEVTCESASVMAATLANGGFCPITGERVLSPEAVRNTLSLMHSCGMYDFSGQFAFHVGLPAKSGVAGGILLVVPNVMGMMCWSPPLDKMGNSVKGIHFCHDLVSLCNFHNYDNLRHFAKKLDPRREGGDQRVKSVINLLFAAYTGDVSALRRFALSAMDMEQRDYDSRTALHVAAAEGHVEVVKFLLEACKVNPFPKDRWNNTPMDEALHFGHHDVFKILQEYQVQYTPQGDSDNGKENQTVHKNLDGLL
Protocol: Experimental Example 1: Activity Test of Compounds in a GLS1 Coupling Reaction System
The final concentration of each component in the final experimental buffer was 50 mM Tris-HCl pH 8.0, 0.25 mM EDTA, 150 mM K2HPO4, 0.1 mg/mL BSA, 1 mM DTT, and 0.01% o Triton X-100.
the 1× assay buffer was used to prepare “solution A” in the experiment (solution A contained L-glutamine, NAD+ and GLDH), and the final concentration of each component in the final experimental reaction system was 4.5 mM L-glutamine, 2 mM NAD+, and 4 U/mL GLDH; the 1× assay buffer was used to prepare “solution B” in the experiment—2× enzyme solution (solution B contained enzyme GLS1), and the final concentration of GLS1 in the final experimental reaction system was 2 nM.
The experiment plate was the plate prepared by Labcyte's ECHO that contained the gradient concentration of the compound and the corresponding DMSO solution before the experiment:
The experiment plate was taken out, and 20 μL of solution B (an enzyme GLS1 solution) was add to the 2nd to 23rd columns of the experiment plate, and then 20 μL of assay buffer was added to the 1st and 24th columns of the experiment plate, wherein the 1st and 24th columns were used as control groups of the experimental system; the plate was centrifuged at 1000 rpm for 30 seconds; the plate was sealed and incubated at 23° C. for 1 hour; I after 1 hour incubation, 20 μL of solution A was added to columns 1 to 24 of the experiment plate (i.e., addition of samples to the whole plate); the plate was centrifuged at 1000 […] for 30 seconds; the experiment plate was placed on SpectraMax 340PC, and read continuously for 20 minutes in the dynamic mode (the reading interval was set to 1 minute).

[2] = Pharmacokinetic evaluation of compounds in mice; type: in vivo; conditions: mouse, plasma, female C57BL/6 mice; for bioavailability: oral, gavage vs intravenous; for half-life: tail intravenous injection and gavage, read-out: T1/2 (half-life) (converted); for half-life / AUC(0-inf) / Cmax: route not given; for Cmax: read-out: Cmax (peak concentration)
Protocol: Experimental Example 2: Pharmacokinetic Evaluation of Compounds
Objective: To test the in vivo pharmacokinetics of the compounds in mice
C57BL/6 mice (female, 7-9 weeks old, Shanghai SLAC)
Experiment operations: The clear solution obtained by dissolving the test compound was administered to female C57BL/6 mice (overnight fasting, 7-9 weeks old) via tail intravenous injection and gavage, respectively. After administration of the test compound or the control compound, blood was collected from the mandibular vein of the intravenous injection group at 0.0833, 0.25, 0.5, 1, 2, 4, 6, 8 and 24 hours, and of the gavage group at 0.0833, 0.25, 0.5, 1, 2, 4, 6, 8 and 24 hours, respectively, and centrifuged to obtain plasma. The LC-MS/MS method was used to determine the blood drug concentration, and the WinNonlin™ Version 6.3 pharmacokinetic software was used to calculate the relevant pharmacokinetic parameters by the non-compartmental model linear logarithmic trapezoidal method.

[3] = test system: human myeloma RPMI-8226 cell; assay: In vivo pharmacodynamic study, CB-17 SCID nude mouse subcutaneous xenograft model of human myeloma RPMI-8226 cell; set-up: species or system mouse xenograft of human cells; conditions: for Tumor volume (mm^3) (Day 14): Mean ± SEM, PO, Poma 1 mg/kg QD, CB-839 or compound 2 100 mg/kg (D1-D10) 150 mg/kg (D11-D14) BID
From the text: Experimental Example 3 In Vivo Pharmacodynamic Study of a CB-17 SCID Nude Mouse Subcutaneous Xenograft Model of Human Myeloma RPMI-8226 Cell
Objective: Pomalidomide is used to treat multiple myeloma, and this experiment is used to study and evaluate the in vivo efficacy of the test compound combined with pomalidomide in the CB-17 SCID nude mouse subcutaneous xenograft model of human myeloma RPMI-8226 cell.
Experiment animals: female CB-17 SCID nude mice, 6 to 8 weeks old, with the body weigh of 18 to 22 grams; Supplier: Shanghai Lingchang Biological Technology Co., Ltd.
Human myeloma RPMI 8226 cells were cultured in a monolayer in vitro. The culture conditions were: RPMI 1640 medium (brand: gibco—22400089, batch: 1894220) supplemented with 10% fetal bovine serum, 100 U/mL penicillin and 100 μg/mL streptomycin, at 37° C. and 5% CO2. Conventional digestion treatment with pancreatin-EDTA for passage was carried out twice a week. When the cell confluence reached 80% to 90%, the cells were harvested, counted and inoculated.
0.2 mL (6×10^6 cells) of RPMI 8226 cells (supplemented with matrigel in a volume ratio of 1:1) were subcutaneously inoculated on the right back of each mouse. The grouping and administration were started when the average tumor volume reached 374 mm^3.
The test compound (compound 2) was formulated into a clear solution of 10 mg/mL, and the solvent was a 10 mM citric acid buffer containing 0.2% Tween-80 and 25% hydroxypropyl-β-cyclodextrin, pH=4. CB-839 was formulated into a clear solution of 10 mg/mL, and the solvent was a 10 mM citric acid buffer containing 25% hydroxypropyl-β-cyclodextrin, pH=2.2. Pomalidomide (Poma) was formulated into a clear solution of 0.1 mg/mL, and the solvent was 20% PEG400+80% (20% hydroxypropyl-β-cyclodextrin).
The experimental index was to investigate whether the tumor growth was inhibited, delayed or cured. Tumor diameter was measured twice a week with a vernier caliper. The calculation formula of tumor volume was V=0.5a×b^2, wherein a and b represented the long and short diameters of the tumor, respectively.
The anti-tumor efficacy of the compound was evaluated by TGI (%) or relative tumor proliferation rate T/C (%). TGI (%) reflected the tumor growth inhibition rate. Calculation of TGI (%): TGI (%)=[1−(average tumor volume at the end of administration in a treatment group−average tumor volume at the beginning of administration in this treatment group)/(average tumor volume at the end of administration in the solvent control group-average tumor volume at the beginning of administration in the solvent control group)]×100%.
Relative tumor proliferation rate T/C (%): the calculation formula was as follows: T/C %=TRTV/CRTV×100% (TRTV: mean RTV of the treatment group; CRTV: mean RTV of the negative control group). The relative tumor volume (RTV) was calculated according to the results of the tumor measurement. The calculation formula was RTV=Vt/V0, where V0 was the tumor volume measured at beginning of the grouping and administration (i.e., d0), and Vt was the tumor volume at the time of a certain measurement. TRTV and CRTV were obtained from the data on the same day.
Statistical analysis included mean value and standard error (SEM) of the tumor volume of each group at each time point (see Table 4 for specific data). […] The comparison between two groups was analyzed by T-test, and the comparison between three or more groups was analyzed by one-way ANOVA.
Statistical analysis of synergy: method for calculating Q value (also known as King's formula method) was as follows: Q=TGIA+B/(TGIA+TGIB−TGIA×TGIB). TGIA, TGIB and TGIA+B were the tumor inhibition rates when drug A was used alone, drug B was used alone, and drug A and drug B were used in combination, respectively.
In the experiment, the effect of the test compound on the weight of the animal was investigated. […]

Row | Compound | IC50 [1] | further results
1 | COC(C(=O)Nc1nnc(NC2CC=C(c3cccnn3)CC2)s1)c1cc(OC(F)(F)F)ccc1F (single isomer, unassigned) [Compound 1] | 0.132 µM | –
2 | COC(C(=O)Nc1nnc(NC2CC=C(c3cccnn3)CC2)s1)c1cc(OC(F)(F)F)ccc1F (single isomer, unassigned) [Compound 2] | 0.0965 µM | bioavailability [2]: 34.8%; half-life [2]: 3.93 h; AUC(0-inf) [2]: 134 µM·h; Cmax [2]: 36.8 µM
3 | COC(C(=O)Nc1nnc(NC2CCC(c3cccnn3)CC2)s1)c1cc(OC(F)(F)F)ccc1F (single isomer, unassigned) [Compound 3] | 0.17 µM | –
4 | COC(C(=O)Nc1nnc(NC2CCC(c3cccnn3)CC2)s1)c1cc(OC(F)(F)F)ccc1F (single isomer, unassigned) [Compound 4] | 4.9 µM | –
5 | O=C(Cc1cccc(OC(F)(F)F)c1)Nc1ccc(CCCCc2nnc(NC(=O)Cc3ccccn3)s2)nn1 [CB-839, reference compound] | – | bioavailability [2]: 27.1%; half-life [2]: 4.69 h; AUC(0-inf) [2]: 27.7 µM·h; Cmax [2]: 18.1 µM
6 | CO[C@H](C(=O)Nc1nnc(NC2CCC(c3cc(C)cnn3)CC2)s1)c1cc(OC(F)(F)F)ccc1F (stereo partly shown) [Compound 5 (hydrochloride salt)] | 0.469 µM | –
7 | CO[C@H](C(=O)Nc1nnc(NC2CCC(c3cc(C(=O)O)cnn3)CC2)s1)c1cc(OC(F)(F)F)ccc1F (stereo partly shown) [Compound 6 (hydrochloride salt)] | 1.69 µM | –
8 | CO[C@H](C(=O)Nc1nnc(NC2CC=C(c3ccc(N)nn3)CC2)s1)c1cc(OC(F)(F)F)ccc1F (stereo partly shown) [Compound 7 (hydrochloride salt)] | 0.133 µM | –
9 | COc1cccc(C(OC)C(=O)Nc2nnc(N[C@H]3CC[C@@H](c4cccnn4)CC3)s2)c1 (stereo partly shown) [Compound 8 (trifluoroacetate salt)] | 0.577 µM | –
10 | COC(C(=O)Nc1nnc(N[C@H]2CC[C@@H](c3cccnn3)CC2)s1)c1cccc(OC(F)(F)F)c1 (stereo partly shown) [Compound 9 (hydrochloride salt)] | 0.502 µM | –
11 | CO[C@H](C(=O)Nc1nnc(N[C@H]2CC[C@@H](c3cccnn3)CC2)s1)c1ccccc1 [Compound 10 (hydrochloride salt)] | 1.59 µM | –
12 | COC(C(=O)Nc1nnc(N[C@H]2CC[C@@H](c3cccnn3)CC2)s1)c1cccc(OC(F)F)c1 (stereo partly shown) [Compound 11 (trifluoroacetate salt)] | 0.72 µM | –
13 | COc1cc(C(OC)C(=O)Nc2nnc(N[C@H]3CC[C@@H](c4cccnn4)CC3)s2)ccc1F (stereo partly shown) [Compound 12 (trifluoroacetate salt)] | 4.71 µM | –
14 | CO[C@H](C(=O)Nc1nnc(NC2CC=C(c3cc4cc[nH]c4nn3)CC2)s1)c1cc(OC(F)(F)F)ccc1F (stereo partly shown) [Compound 13 (trifluoroacetate salt)] | 0.18 µM | –
15 | CO[C@H](C(=O)Nc1nnc(NC2CCC(c3cc4cc[nH]c4nn3)CC2)s1)c1cc(OC(F)(F)F)ccc1F (stereo partly shown) [Compound 14] | 0.757 µM | –
16 | Nc1cccc2c1C(=O)N(C1CCC(=O)NC1=O)C2=O (stereo not shown) [Poma, Pomalidomide] | – | Tumor volume (mm^3) (Day 14) ([3]; Day 14 after administration): 1542 ± 259 mm^3; Tumor volume (mm^3) (Day 14) ([3]; Day 14 after administration, listed as pomalidomide): 1,542 mm^3; anti-tumor effect compared with the solvent control group ([3]; Day 14 after administration, result in words): no significant anti-tumor effect; T/C (%) ([3]; relative tumor proliferation rate, Day 14, vs solvent control group): 68.8%; RTV (Day 14) ([3]; relative tumor volume Vt/V0, Day 14, same dosing as tumor volume): 4.22 ± 0.50; TGI (%) ([3]; tumor growth inhibition rate, Day 14, vs solvent control group): 34.0%
